PMC6147133, “The Toxoplasma gondii Active Serine Hydrolase 4 Regulates Parasite Division and Intravacuolar Parasite Architecture” (mSphere, 2018)

Molecular target: T1, rASH4 (ASH4) (Toxoplasma gondii, UniProt A0A125YZ56)
T1 construct: full-length ORF from RH cDNA, N-terminal 6xHis tag (pET-28A, pIF22), E. coli BL21-CodonPlus(DE3)-RIL; active-site S124, G2 myristoylation site
T1 sequence (A0A125YZ56 1-260): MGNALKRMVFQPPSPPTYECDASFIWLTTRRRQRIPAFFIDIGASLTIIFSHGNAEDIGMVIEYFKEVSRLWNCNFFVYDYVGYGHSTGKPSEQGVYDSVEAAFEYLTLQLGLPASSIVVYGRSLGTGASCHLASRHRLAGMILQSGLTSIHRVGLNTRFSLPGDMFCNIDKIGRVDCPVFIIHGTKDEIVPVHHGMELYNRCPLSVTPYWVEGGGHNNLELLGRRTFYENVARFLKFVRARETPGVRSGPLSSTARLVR
Assay: fluorogenic hydrolysis assay
Assay type: biochemical
Details: 10 uM substrate, 150 nM enzyme

## CC(=O)Oc1ccc2c(C)cc(=O)oc2c1 [4MU-acetate, 4-methyl-2-oxo-2H-chromen-7-yl acetate]
  fluorogenic hydrolysis assay: with the two-carbon acetyl ester having the highest rate of hydrolysis
